26 compounds from patent US7396844B1, “Benzamidine derivatives” (Ajinomoto Co., Inc., priority 1997, dated 2008) can be followed below.

In one experiment the target is T1, human thrombin (Homo sapiens, UniProt P00734).
T1 construct: human thrombin (a product of SIGMA Co.); purchased SIGMA Co
Nature of the experiment: Determination of thrombin-inhibiting activity. In kind it is biochemical. As to conditions: Table 1, negative logarithm of concentration inhibiting 50% of initial rate, substrate S-2238, Tris-HCl pH 8.4; for IC50: read-out: Thrombin-inhibiting activity (pIC50) (converted). The method, then: 130 μl of 100 mM Tris-HCl buffer adjusted to pH 8.4 was added to 10 μl of an aqueous solution of a test compound. Then 10 μl of a solution of human thrombin (a product of SIGMA Co.) adjusted to 2 units/ml with Tris-HCl buffer of pH 8.4 was added to the resultant mixture. […] The absorbance was determined and then the initial reaction rate was determined. A control was prepared in the same manner as that described above except that the solution of the compound to be tested was replaced with 10 μl of tris hydrochloride buffer adjusted to pH 8.4.

Experiment [1] addresses T2, activated human blood coagulation factor X (Homo sapiens, UniProt P00742).
T2 construct: purchased Enzyme Research Co
The experiment is described as follows: Determination of activity of inhibiting the activated blood coagulation factor X. In kind it is biochemical. The note with it: Table 1, negative logarithm of concentration inhibiting 50% of initial rate, Tris-HCl pH 8.4, room temperature; for IC50: read-out: Activity of inhibiting activated blood coagulation factor X (pIC50) (converted). How it is done: 130 μl of 100 mM Tris-HCl buffer adjusted to pH 8.4 was added to 10 μl of an aqueous solution of a compound to be tested. Then 10 μl of a 0.5 unit/ml solution of activated human blood coagulation factor X (a product of Enzyme Research Co.) in Tris-HCl buffer hydrochloride of pH 8.4 was added to the resultant mixture. After the incubation at room temperature for 10 minutes, 50 μl of a solution of N-benzoyl-L-isoleucyl-L-glutamyl-glycyl-L-arginyl-p-nitroanilide hydrochloride (a product of Peptide Institute, Inc.) adjusted to 0.8 mM with Tris-HCl buffer (pH 8.4) was added thereto. The absorbance was determined and then the initial reaction rate was determined. A control was prepared in the same manner as that described above except that the solution of the compound to be tested was replaced with 10 μl of Tris-HCl buffer adjusted to pH 8.4.

Where a name gives a salt, the structure may show the parent alone.

T2 sequence (P00742 235-488 limits assumed): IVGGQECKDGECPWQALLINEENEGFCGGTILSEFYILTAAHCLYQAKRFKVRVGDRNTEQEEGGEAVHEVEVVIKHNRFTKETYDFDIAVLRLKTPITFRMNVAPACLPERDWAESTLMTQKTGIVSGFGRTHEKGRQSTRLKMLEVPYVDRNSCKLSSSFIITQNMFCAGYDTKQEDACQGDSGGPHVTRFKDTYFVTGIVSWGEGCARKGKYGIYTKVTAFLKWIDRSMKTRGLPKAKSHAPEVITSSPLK
T2 sequence (P00742 41-179 partner limits assumed): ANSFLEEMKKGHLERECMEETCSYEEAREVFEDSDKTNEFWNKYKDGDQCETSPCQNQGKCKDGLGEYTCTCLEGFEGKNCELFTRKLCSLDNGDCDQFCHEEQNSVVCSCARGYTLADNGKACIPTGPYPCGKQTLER

On to `N=C(N)c1ccc(C(=S)NCCOc2cccc(C(=N)N)c2)cc1` [Compound of Ex. 1, N-[2-(3-amidinophenoxy)ethyl]-4-amidinobenzthioamide bistrifluoroacetate], for which the values for the IC50 (on human thrombin; in experiment [1]) were 398 µM and 0.398 µM, respectively.
With `CN(C)C(=O)c1ccc(C(=O)NCCOc2cccc(C(=N)N)c2)cc1` [Compound of Ex. 3, N-[2-(3-amidinophenoxy)ethyl]-4-(N,N-dimethylcarbamoyl)benzamide trifluoroacetate], the IC50 in experiment [1] was 0.0251 µM.
As to `CN(C)C(=N)c1ccc(C(=O)NCCOc2cccc(C(=N)N)c2)cc1` [Compound of Ex. 7, N-[2-(3-amidinophenoxy)ethyl]-4-(N,N-dimethylamidino)benzamide bistrifluoroacetate], the IC50 in experiment [1] was 0.0794 µM.
On to `N=C(N)c1cccc(OCCNC(=O)c2ccc(C(=O)N3CCCC3)cc2)c1` [Compound of Ex. 9, N-[2-(3-amidinophenoxy)ethyl]-4-(1-pyrrolidinecarbonyl)benzamide trifluoroacetate], for which the IC50 at human thrombin was 50.1 µM; in experiment [1] it was 0.02 µM.
In the same order, the values of `N=C(N)c1cccc(OCCNC(=O)c2ccc(/C=C/c3ccncc3)cc2)c1` [Compound of Ex. 10, N-[2-(3-amidinophenoxy)ethyl]-4-[(E)-2-(pyridine-4-yl)vinyl]benzamide bistrifluoroacetate] are 126 µM and 0.1 µM.
`N=C(N)c1cccc(OCCNC(=O)c2ccc(CCc3ccncc3)cc2)c1` [Compound of Ex. 14, N-[2-(3-amidinophenoxy)ethyl]-4-[2-(pyridine-4-yl)ethyl]benzamide bistrifluoroacetate]: the IC50 was 20 µM at human thrombin and 0.0501 µM in experiment [1].
Regarding `N=C(N)c1cccc(OCCNC(=O)c2ccc(N3CCCC3)cc2)c1` [Compound of Ex. 18, N-[2-(3-amidinophenoxy)ethyl]-4-(pyrrolidine-1-yl)benzamide trifluoroacetate], the IC50 is 39.8 µM on human thrombin and 0.0501 µM in experiment [1].
In the same order, the values of `N=C(N)c1cccc(OCCNC(=O)c2ccc(CC3CCNCC3)cc2)c1` [Compound of Ex. 43, N-[2-(3-amidinophenoxy)ethyl]-4-[(piperidine-4-yl)methyl]benzamide bistrifluoroacetate] are 50.1 µM and 0.251 µM.
In the case of `CCOC(=O)C[C@H](COc1cccc(C(=N)N)c1)NC(=O)c1ccc(-c2ccccc2)cc1` [Compound of Ex. 54, ethyl (3R)-3-[(biphenyl-4-carbonyl)amino]-4-(3-amidinophenoxy)butyrate trifluoroacetate], the IC50 at human thrombin was 25.1 µM; in experiment [1], 0.0501 µM.
In the same order, the values of `CN(C)C(=O)c1ccc(C(=O)N[C@@H](COc2cccc(C(=N)N)c2)CC(=O)O)cc1` [Compound of Ex. 56, (3R)-4-(3-amidinophenoxy)-3-[(4-dimethylcarbamoylbenzoyl)amino]butyric acid trifluoroacetate] are greater than 1000 µM and 0.0158 µM.
Take `N=C(N)Nc1ccc(C(=O)N[C@@H](COc2cccc(C(=N)N)c2)CC(=O)O)cc1` [Compound of Ex. 57, (3R)-4-(3-amidinophenoxy)-3-[(4-guanidinobenzoyl)amino]butyric acid bistrifluoroacetate]: the IC50 was greater than 1000 µM at human thrombin and 0.0126 µM in experiment [1].
Consider `N=C(N)c1cccc(OC[C@@H](CC(=O)O)NC(=O)c2ccc(N3CCCC3)cc2)c1` [Compound of Ex. 58, (3R)-4-(3-amidinophenoxy)-3-[4-(pyrrolidine-1-yl)benzoylamino]butyric acid trifluoroacetate], for which the IC50 at human thrombin was greater than 1000 µM; in experiment [1], 0.0251 µM.
Regarding `CCOC(=O)C[C@H](COc1cccc(C(=N)N)c1)NC(=O)c1ccc(N2CCCC2)cc1` [Compound of Ex. 59, ethyl (3R)-4-(3-amidinophenoxy)-3-[4-(pyrrolidine-1-yl)benzoylamino]butyrate trifluoroacetate], the IC50 at human thrombin is 15.8 µM; in experiment [1], 0.0398 µM.
With `CC(=N)N1CCC(Oc2ccc(C(=O)N[C@@H](COc3cccc(C(=N)N)c3)CC(=O)O)cc2)CC1.O=C(O)C(F)(F)F.O=C(O)C(F)(F)F` [Compound of Ex. 62, (3R)-4-(3-amidinophenoxy)-3-[4-(1-acetimidoyl-4-piperidyloxy)benzoylamino]butylic acid bistrifluoroacetate], the “Thrombin-inhibiting activity (pIC50)” value on human thrombin is less than 3.3. In addition, the “Activity of inhibiting activated blood coagulation factor X (pIC50)” value in experiment [1] is recorded as 7.4.
Regarding `CN(C)C(=O)c1ccc(C(=O)CCCOc2cccc(C(=N)N)c2)cc1` [Compound of Ex. 64, 4-[4-(3-amidinophenoxy)butyryl]-N,N-dimethylbenzamide trifluoroacetate], the IC50 in experiment [1] was 0.0631 µM.
`N=C(N)c1ccc(NC(=O)CCCOc2cccc(C(=N)N)c2)cc1` [Compound of Ex. 67, 4-(3-amidinophenoxy)-N-(4-amidinophenyl)butyramide bistrifluoroacetate]: the values for the IC50 (at human thrombin; in experiment [1]) were 316 µM and 0.316 µM, respectively.
Regarding `N=C(N)c1ccc(C(=O)Nc2cccc(COc3cccc(C(=N)N)c3)c2)cc1.O=C(O)C(F)(F)F.O=C(O)C(F)(F)F` [Compound of Ex. 69, N-[3-(3-amidinophenoxymethyl)]phenyl-4-amidinobenzamide bistrifluoroacetate], the “Thrombin-inhibiting activity (pIC50)” value on human thrombin is 4.5. In experiment [1], the “Activity of inhibiting activated blood coagulation factor X (pIC50)” value is recorded as 6.6.
`CCOP(=O)(O)c1ccc(S(=O)(=O)N[C@H](COc2cccc(C(=N)N)c2)Cc2ccc(OC3CCN(C(C)=N)CC3)cc2)cc1.O=C(O)C(F)(F)F.O=C(O)C(F)(F)F` [Compound of Ex. 73]: the “Thrombin-inhibiting activity (pIC50)” value on human thrombin worked out at 3.9. In addition, the “Activity of inhibiting activated blood coagulation factor X (pIC50)” value in experiment [1] is 8.1.
In the same order, the values of `CC(=N)N1CCC(Oc2ccc(C[C@@H](COc3cccc(C(=N)N)c3)NS(=O)(=O)c3ccc(P(=O)(O)O)cc3)cc2)CC1.O=C(O)C(F)(F)F.O=C(O)C(F)(F)F` [Compound of Ex. 74] are less than 3.7 and 7.6.
For the compound `CC(=N)N1CCC(Oc2ccc(C(=O)NCCOc3cc(C(=N)N)ccc3CC(=O)C(=O)O)cc2)CC1` [Compound of Ex. 79, 3-[4-amidino-2-[2-[4-(1-acetimidoyl-4-piperidyloxy)benzoylamino]ethoxy]phenyl]-2-oxopropionic acid bistrifluoroacetate], the IC50 was 25.1 µM at human thrombin and 0.02 µM in experiment [1].
On to `CN(C)C(=O)c1ccc(C(=O)NCCOc2cc(C(=N)N)ccc2CC(=O)C(=O)O)cc1` [Compound of Ex. 80, 3-[4-amidino-2-[2-[4-(dimethylcarbamoyl)benzoylamino]ethoxy]phenyl]-2-oxo-propionic acid trifluoroacetate], for which the IC50 on human thrombin is 39.8 µM; in experiment [1], 0.0126 µM.
`N=C(N)c1ccc(CC(=O)C(=O)O)c(OCCNC(=O)c2ccc(CC3CCNCC3)cc2)c1` [Compound of Ex. 81, 3-[4-amidino-2-[2-[4-(4-piperidylmethyl)benzoylamino]ethoxy]phenyl]-2-oxopropionic acid bistrifluoroacetate]: the figures for the IC50 (at human thrombin; in experiment [1]) were 31.6 µM and 0.0794 µM, respectively.
`N=C(N)c1ccc(CC(=O)C(=O)O)c(OCCNC(=O)c2ccc(N3CCCC3)cc2)c1` [Compound of Ex. 82, 3-[4-amidino-2-[2-[4-(pyrrolidine-1-yl)benzoylamino]ethoxy]phenyl]-2-oxopropionic acid trifluoroacetate]: the IC50 on human thrombin is 6.31 µM; in experiment [1] it was 0.0251 µM.
For `N=C(N)c1ccc(C(=O)N[C@@H](CCC(=O)O)COc2cccc(C(=N)N)c2)cc1` [Compound of Ex. 83, (4S)-4-(4-amidinobenzoylamino)-5-(3-amidinophenoxy)pentanoic acid bistrifluoroacetate], the IC50 at human thrombin was greater than 1000 µM; in experiment [1], 0.158 µM.
Take `N=C(N)c1ccc(C(=O)N[C@@H](COc2cccc(C(=N)N)c2)Cc2ccc(C(=O)O)cc2)cc1` [Compound of Ex. 90, 4-[(2R)-2-(4-amidinobenzoylamino)-3-(3-amidinophenoxy)propyl]benzoic acid bistrifluoroacetate]: the IC50 at human thrombin was greater than 251 µM; in experiment [1], 0.0398 µM.
Consider `N=C(N)c1ccc(C(=O)N[C@H](CCOc2cccc(C(=N)N)c2)C(=O)O)cc1` [Compound of Ex. 92, (2R)-2-(4-amidinobenzoylamino)-4-(3-amidinophenoxy)butanoic acid bistrifluoroacetate], for which the IC50 on human thrombin is greater than 1000 µM; in experiment [1], 0.0501 µM.
